Measurements: ChEMBL document CHEMBL4130493, “An insight into the biological activities of heterocyclic-fatty acid hybrid molecules” (Eur J Med Chem, 2017)
Converted amounts (≈) assume the structure as drawn.

Experiments:
[1] = tested on: Mycobacterium tuberculosis; experiment: Antimycobacterial activity against Mycobacterium tuberculosis H37Rv assessed as reduction in mycobacterial growth incubated for 5 days by MTT assay; format: functional; conditions: 120 h
Mycobacterium avium = experiment: Antimycobacterial activity against Mycobacterium avium; format: functional
Pseudomonas aeruginosa = experiment: Antibacterial activity against Pseudomonas aeruginosa incubated for 24 hrs by filter paper disc method; format: functional
Escherichia coli [2] = experiment: Antibacterial activity against Escherichia coli K-12 incubated for 24 hrs by filter paper disc method; format: functional
Staphylococcus aureus [3] = experiment: Antibacterial activity against Staphylococcus aureus MSSA 22 incubated for 24 hrs by filter paper disc method; format: functional
Bacillus subtilis [4] = experiment: Antibacterial activity against Bacillus subtilis MTCC 121 incubated for 24 hrs by filter paper disc method; format: functional
MCF7 = experiment: Cytotoxicity in human MCF7 cells incubated for 48 hrs by MTT assay; format: functional, cell-based; conditions: MCF7, 48 h
HeLa = experiment: Cytotoxicity in human HeLa cells incubated for 48 hrs by MTT assay; format: functional, cell-based
Hep 3B2 = experiment: Cytotoxicity in human Hep3B cells incubated for 48 hrs by MTT assay; format: functional, cell-based
Candida albicans [5] = experiment: Antifungal activity against Candida albicans by disc diffusion method; format: functional
Candida albicans [6] = experiment: Antifungal activity against Candida albicans IOA-109; format: functional
Candida albicans [7] = experiment: Antifungal activity against Candida albicans IOA-109 incubated for 18 to 48 hrs; format: functional
Klebsiella pneumoniae = experiment: Antibacterial activity against Klebsiella pneumoniae incubated for 24 hrs by filter paper disc method; format: functional
Escherichia coli [8] = experiment: Antibacterial activity against Escherichia coli K-12 by disc diffusion method; format: functional
Salmonella typhimurium = experiment: Antibacterial activity against Salmonella typhimurium MTCC98 by disc diffusion method; format: functional, Salmonella enterica subsp. enterica serovar Typhimurium
Bacillus subtilis [9] = experiment: Antibacterial activity against Bacillus subtilis ATCC 6051 by disc diffusion method; format: functional
Staphylococcus aureus [10] = experiment: Antibacterial activity against Staphylococcus aureus MSSA 22 by disc diffusion method; format: functional
[11] = tested on: Mycobacterium tuberculosis; experiment: Antimycobacterial activity against Mycobacterium tuberculosis MDR-TB; format: functional
[12] = tested on: Mycobacterium tuberculosis; experiment: Antimycobacterial activity against Mycobacterium tuberculosis XDR-TB; format: functional
Staphylococcus aureus [13] = experiment: Antibacterial activity against Staphylococcus aureus at 50 ug/disc incubated for 18 hrs by disc diffusion method; format: functional; conditions: read-out: DIZ
Candida albicans [14] = experiment: Antifungal activity against Candida albicans IOA-109 at 50 ug/disc incubated for 5 to 6 days by disc diffusion method; format: functional; conditions: read-out: DIZ

Which results are given for `CCCCCCCCc1cn(CC(=O)OCC)nn1`?
MIC [1]: 0.5 µg/mL (≈ 1.87 µM); MIC (Mycobacterium avium): 0.5 µg/mL (≈ 1.87 µM)

What does the source list for `CCCCC/C=C\CCC(O)CCCCCCCC(=O)N1N=C(C)CC1=O` (stereo unspecified)?
diameter of the inhibition zone (DIZ) (Pseudomonas aeruginosa): 10 - 18 mm; diameter of the inhibition zone (DIZ) (Escherichia coli [2]): 10 - 18 mm; diameter of the inhibition zone (DIZ) (Staphylococcus aureus [3]): 10 - 18 mm; diameter of the inhibition zone (DIZ) (Bacillus subtilis [4]): 10 - 18 mm

Which IC50 (MCF7) does the source give for `CCCC/C=C\CCC(O)CCCCCCC1=NNC2SCC(c3ccccc3)=NN12` (stereo unspecified) here?
Its IC50 is 8.8 µM.

What about the IC50 (HeLa) of the same molecule?
The IC50 was 6 µM.

What about the IC50 (Hep 3B2) of the same molecule?
Its IC50 is 7.36 µM.

`CCCCCC(O)/C=C\CCCCCCCc1ccc(CCCCCCC/C=C\C(O)CCCCC)o1` (stereo unspecified) was tested. Which “diameter of the inhibition zone (DIZ)” value (Candida albicans [5]) did it give?
Its value is 27 mm.

`C=CCCCCCCCCc1nc2ccccc2s1` was tested. Which “diameter of the inhibition zone (DIZ)” value (Candida albicans [6]) did it give?
Its value is 16 - 20 mm.

Which “diameter of the inhibition zone (DIZ)” value (Pseudomonas aeruginosa) does the source give for `CCCCCCC/C=C\CC(O)CCCCCCC(=O)n1[nH]c(=O)c2ccccc2c1=O` (stereo unspecified) here?
The value was 10 - 18 mm.

And the “diameter of the inhibition zone (DIZ)” value (Escherichia coli [2])?
Its value is 15 - 18 mm.

And the “diameter of the inhibition zone (DIZ)” value (Staphylococcus aureus [3])?
The value was 10 - 18 mm.

What about the “diameter of the inhibition zone (DIZ)” value (Bacillus subtilis [4]) of the same molecule?
Its value is 10 - 18 mm.

For `CCCCC/C=C\CCC(O)CCCCCCCC(=O)Nn1c(C)ccc1C` (stereo unspecified), which “diameter of the inhibition zone (DIZ)” value (Candida albicans [7]) is on record?
The value was 17 - 20 mm.

And the “diameter of the inhibition zone (DIZ)” value (Klebsiella pneumoniae)?
Its value is 15 - 19 mm.

What about the “diameter of the inhibition zone (DIZ)” value (Escherichia coli [2]) of the same molecule?
Its value is 15 - 19 mm.

And the “diameter of the inhibition zone (DIZ)” value (Staphylococcus aureus [3])?
Its value is 15 - 19 mm.

What about the “diameter of the inhibition zone (DIZ)” value (Bacillus subtilis [4]) of the same molecule?
The value was 15 - 19 mm.

`C=CCCCCCCCCC1=NNC2SCC(c3ccccc3)=NN12` (stereo unspecified) was tested. Which IC50 (MCF7) did it give?
Its IC50 is 10.3 µM.

And the IC50 (HeLa)?
The IC50 was 8.01 µM.

What about the IC50 (Hep 3B2) of the same molecule?
Its IC50 is 7.4 µM.

Which results are given for `C=CCCCCCCCCc1nnc(N)o1`?
diameter of the inhibition zone (DIZ) (Escherichia coli [8]): 7 - 13 mm; diameter of the inhibition zone (DIZ) (Salmonella typhimurium): 7 - 13 mm; diameter of the inhibition zone (DIZ) (Bacillus subtilis [9]): 7 - 13 mm; diameter of the inhibition zone (DIZ) (Staphylococcus aureus [10]): 7 - 13 mm

Which “diameter of the inhibition zone (DIZ)” value (Candida albicans [7]) does the source give for `CCCCC/C=C\CCC(O)CCCCCCCc1nc2ccccc2c(=O)o1` (stereo unspecified) here?
Its value is 17 - 20 mm.

And the “diameter of the inhibition zone (DIZ)” value (Klebsiella pneumoniae)?
The value was 15 - 19 mm.

What about the “diameter of the inhibition zone (DIZ)” value (Escherichia coli [2]) of the same molecule?
Its value is 15 - 19 mm.

What about the “diameter of the inhibition zone (DIZ)” value (Staphylococcus aureus [3]) of the same molecule?
The value was 15 - 19 mm.

What about the “diameter of the inhibition zone (DIZ)” value (Bacillus subtilis [4]) of the same molecule?
Its value is 15 - 19 mm.

With `CCCCCCCCNc1cncc(C(=O)Nc2ccccc2)n1` as the molecule, how does the MIC [11] read?
The MIC was 16 to 32 µM (≈ 5.22 to 10.4 µg/mL).

And the MIC [12]?
Its MIC is 16 to 32 µM (≈ 5.22 to 10.4 µg/mL).

With `CCCCCCCC/C=C\CCCCCCCc1nc2ccccc2s1` as the molecule, how does the “diameter of the inhibition zone (DIZ)” value (Candida albicans [6]) read?
Its value is 16 - 20 mm.

What does the source list for `CCCCCCC(O)C/C=C\CCCCCCCC1=NNC2SCC(c3ccccc3)=NN12` (stereo unspecified)?
IC50 (MCF7): 8.59 µM; IC50 (HeLa): 8.83 µM; IC50 (Hep 3B2): 6.5 µM

For `CCCCCCCC/C=C\CCCCCCCC(=O)n1nnc2ccccc21`, which zone of inhibition at 50 µg/disc (Staphylococcus aureus [13]) is on record?
The zone of inhibition at 50 µg/disc was 13 to 15 mm.

What about the zone of inhibition at 50 µg/disc (Candida albicans [14]) of the same molecule?
Its zone of inhibition at 50 µg/disc is 13 to 15 mm.

With `CCCCCCCCCCCCCCCc1ccc(CCCCCCCCCCCCCCC)o1` as the molecule, how does the “diameter of the inhibition zone (DIZ)” value (Candida albicans [5]) read?
Its value is 27 mm.

`CCCCCCC(O)C/C=C\CCCCCCC(=O)N1N=C(C)CC1=O` (stereo unspecified) was tested. Which “diameter of the inhibition zone (DIZ)” value (Pseudomonas aeruginosa) did it give?
The value was 10 - 18 mm.

What about the “diameter of the inhibition zone (DIZ)” value (Escherichia coli [2]) of the same molecule?
The value was 10 - 18 mm.

And the “diameter of the inhibition zone (DIZ)” value (Staphylococcus aureus [3])?
Its value is 10 - 18 mm.

And the “diameter of the inhibition zone (DIZ)” value (Bacillus subtilis [4])?
Its value is 10 - 18 mm.

How did the “diameter of the inhibition zone (DIZ)” value (Candida albicans [6]) turn out when `CCCCCCCCCCCCCCCc1nc2ccccc2s1` was run?
Its value is 16 - 20 mm.

For `CCCCCCCC(O)CC/C=C\CCCCC(=O)n1[nH]c(=O)c2ccccc2c1=O` (stereo unspecified), which “diameter of the inhibition zone (DIZ)” value (Pseudomonas aeruginosa) is on record?
Its value is 10 - 18 mm.

And the “diameter of the inhibition zone (DIZ)” value (Escherichia coli [2])?
The value was 15 - 18 mm.

And the “diameter of the inhibition zone (DIZ)” value (Staphylococcus aureus [3])?
The value was 10 - 18 mm.

What about the “diameter of the inhibition zone (DIZ)” value (Bacillus subtilis [4]) of the same molecule?
The value was 10 - 18 mm.

Which results are given for `CCCCCCC(O)C/C=C\CCCCCCC(=O)Nn1c(C)ccc1C` (stereo unspecified)?
diameter of the inhibition zone (DIZ) (Candida albicans [7]): 17 - 20 mm; diameter of the inhibition zone (DIZ) (Klebsiella pneumoniae): 15 - 19 mm; diameter of the inhibition zone (DIZ) (Escherichia coli [2]): 15 - 19 mm; diameter of the inhibition zone (DIZ) (Staphylococcus aureus [3]): 15 - 19 mm; diameter of the inhibition zone (DIZ) (Bacillus subtilis [4]): 15 - 19 mm

With `C=CCCCCCCCCC(=O)n1nnc2ccccc21` as the molecule, how does the zone of inhibition at 50 µg/disc (Staphylococcus aureus [13]) read?
The zone of inhibition at 50 µg/disc was 13 to 15 mm.

What about the zone of inhibition at 50 µg/disc (Candida albicans [14]) of the same molecule?
Its zone of inhibition at 50 µg/disc is 13 to 15 mm.

For `CCCCCCC(O)C/C=C\CCCCCCCc1nnc(N)o1` (stereo unspecified), which “diameter of the inhibition zone (DIZ)” value (Escherichia coli [8]) is on record?
The value was 13 - 18 mm.

And the “diameter of the inhibition zone (DIZ)” value (Salmonella typhimurium)?
Its value is 13 - 18 mm.

What about the “diameter of the inhibition zone (DIZ)” value (Bacillus subtilis [9]) of the same molecule?
The value was 13 - 18 mm.

And the “diameter of the inhibition zone (DIZ)” value (Staphylococcus aureus [10])?
Its value is 13 - 18 mm.

With `CCCCCCC(O)C/C=C\CCCCCCc1nc2ccccc2c(=O)o1` (stereo unspecified) as the molecule, how does the “diameter of the inhibition zone (DIZ)” value (Candida albicans [7]) read?
The value was 17 - 20 mm.

What about the “diameter of the inhibition zone (DIZ)” value (Klebsiella pneumoniae) of the same molecule?
The value was 15 - 19 mm.

And the “diameter of the inhibition zone (DIZ)” value (Escherichia coli [2])?
Its value is 15 - 19 mm.

And the “diameter of the inhibition zone (DIZ)” value (Staphylococcus aureus [3])?
The value was 15 - 19 mm.

And the “diameter of the inhibition zone (DIZ)” value (Bacillus subtilis [4])?
Its value is 15 - 19 mm.
